# Legend:
# T. brucei BSF = assay: Toxicity (EC50) in bloodstream form T. brucei; assay type: cell-based, Trypanosoma brucei; conditions: Trypanosoma brucei; bloodstream form; footnote b
# Description: (§1) Fig 1 Labelling and detection of B-THP-T target(s). (A) Structures of chamuvarinin and simplified analogues thereof as probes used in this study and their respective toxicity in selected cell lines. Bi-functional compound 3 contains a diazirine (blue) to cross-link the compound to its target and an alkyne handle (red) to which an azide-containing reporter probe can be added. Mono-functional compound 2 contains the diazirine to cross-link to its target but lacks the alkyne handle and cannot be appended with an azide reporter probe. Lead B-THP-T, compound 1, lacks both diazirine and alkyne. The additional functional groups on compounds 2 and 3 are minor alterations, which have little effect on inhibitor potency. (B) Overview of the in vivo pulse-chase photo-affinity labelling procedure. B-THP-T were incubated with live PF T. brucei cells and trafficked to their targets. Following UV-irradiation, only compounds containing a diazirine (i.e. compounds 2 and 3) could cross-link with target proteins. The subsequent “click reaction” appended the conjugated B-THP-T with a reporter probe as long as an alkyne handle was present (i.e. on compound 3). Refer to the experimental section for details. (C) Detection of Cy5.5-tagged proteins following photo-affinity labelling. Proteins were separated by SDS-PAGE and conjugated Cy5.5 was detected at 700 nm. Lanes 1–3 correspond to usage of compounds 1–3 respectively. Several proteins in lane 3 were conjugated with Cy5.5 via labelling with bi-functional compound 3. […]
# HeLa = assay: Toxicity (EC50) in HeLa cells; assay type: cell-based; conditions: Homo sapiens, footnote b, read-out: EC50 values Mammal HeLa
# Description: Fig 1 Labelling and detection of B-THP-T target(s). (A) Structures of chamuvarinin and simplified analogues thereof as probes used in this study and their respective toxicity in selected cell lines. Bi-functional compound 3 contains a diazirine (blue) to cross-link the compound to its target and an alkyne handle (red) to which an azide-containing reporter probe can be added. Mono-functional compound 2 contains the diazirine to cross-link to its target but lacks the alkyne handle and cannot be appended with an azide reporter probe. Lead B-THP-T, compound 1, lacks both diazirine and alkyne. The additional functional groups on compounds 2 and 3 are minor alterations, which have little effect on inhibitor potency. (B) Overview of the in vivo pulse-chase photo-affinity labelling procedure. B-THP-T were incubated with live PF T. brucei cells and trafficked to their targets. Following UV-irradiation, only compounds containing a diazirine (i.e. compounds 2 and 3) could cross-link with target proteins. The subsequent “click reaction” appended the conjugated B-THP-T with a reporter probe as long as an alkyne handle was present (i.e. on compound 3). Refer to the experimental section for details. (C) Detection of Cy5.5-tagged proteins following photo-affinity labelling. Proteins were separated by SDS-PAGE and conjugated Cy5.5 was detected at 700 nm. […]
# T. brucei PF = assay: Toxicity (EC50, cell viability) in procyclic form T. brucei; assay type: cell-based; conditions: Trypanosoma brucei, live cells, 72 h incubation, footnote a
# Description: as §1
# The potency of lead B-THP-T, compound 1, was determined against oxidative phosphorylation in dose-response assays in digitonin-permeabilised PF T. brucei.
# Supplementary file pntd.0005886.s001.tiff: S1 Fig Dose-response of B-THP-T compounds in PF T. brucei. EC50 values were determined for compounds 1–3 in PF T. brucei. […]
# [1] = system: ATP production (oxidative phosphorylation) in digitonin-permeabilised PF T. brucei; assay: ATP production assay in digitonin-permeabilised cells; assay type: cell-based, Trypanosoma brucei; conditions: 30 min; for Effect on ATP production from Gly-3P / Inhibition of ATP production from Gly-3P: glycerol-3-phosphate as substrate; for Effect on ATP production from Gly-3P / Effect on ATP production from succinate: malonate 5 mM, rotenone, SHAM 100 μM; for Effect on ATP production from succinate: succinate 2.5 mM as substrate; for Effect on ATP production from succinate / Inhibition of ATP production from Gly-3P: compound 1, AA, OA 200 μM, DNP 1 mM
# Description: We next sought to identify the point at which ATP production was blocked using digitonin-permeabilised cells. Digitonin permeabilises the plasma membrane of trypanosomatids, but crucially, leaves the glycosomes and mitochondria intact and fully functional, allowing them to be probed with compartment-specific ATP-yielding substrates. Digitonin-permeabilised PF T. brucei were probed with succinate, which is readily transported across the PF T. brucei mitochondrial membrane by the dicarboxylic acid carrier and can yield only oxidative phosphorylation-derived ATP through the FoF1-ATP synthase (complex V).
# Fig 5 Inhibition of ATP production in digitonin-permeabilsed cells. (A-C) Digitonin-permeabilised PF T. brucei were probed with substrates in the presence of inhibitors and resulting ATP production quantified by bioluminescence assay. See experimental section for details. Inhibitors were used at saturating concentrations to ensure that relevant enzyme activities were ablated. Key: NS, no substrate; NI, no inhibitor; SHAM, salicylhydroxamic acid (TAO inhibitor at 100 μM); Rotenone (complex I inhibitor at 100 μM); Malonate (complex II inhibitor at 5 mM); AA, antimycin A (complex III inhibitor at 200 μM); OA, oligomycin A (complex V inhibitor at 200 μM); DNP, 2,4-dinitrophenol (protonophore at 1 mM); Comp.1, compound 1 at 200 μM. Background relative light units (RLU) were subtracted from measurements and % ATP production normalised to the no inhibitor control. Data were averaged from three independent experiments, each performed in quadruplicate. Error bars show standard deviations. T-tests were performed against no inhibitor controls (black asterisks) and compound 1 (grey open circles) and significance values presented: p < 0.00005 (*** / °°°), p < 0.0005 (** / °°), p < 0.005 (* / °). (A) Succinate was used as a substrate to generate ATP solely through oxidative phosphorylation (OxPhos). Oxidative phosphorylation inhibitors malonate, AA, OA and DNP virtually eliminated all ATP production. […] (B) α-ketoglutarate yields 40% ATP through substrate-level phosphorylation (SubPhos) and 60% through oxidative phosphorylation. Malonate, AA, OA and DNP inhibit oxidative phosphorylation, but not substrate-level phosphorylation. […] (C) Gly-3P acts as an alternative entry site to the electron transport chain yielding ATP through oxidative phosphorylation and the glycosome (GlyPhos). Malonate has no effect, as it acts at a different entry point. AA, OA and DNP inhibit oxidative phosphorylation, but not glycosomal phosphorylation.
# ATP production assays were carried out in duplicate, and three independent assays were conducted. Cells were digitonin-permeabilised as previously described. Briefly, cells were washed in PBS and permeabilised for 5 min at a density of 1x10^8 cells/mL in SoTE buffer (20 mM Tris.HCl (pH 7.5), 2 mM EDTA pH 7.5, 600 mM sorbitol) supplemented with 0.015% (w/v) digitonin. Permeabilised cells were pelleted at 5000 g for 3 min at 4°C and suspended to 8.4x10^7 cells/mL in ATP assay buffer (20 mM Tris.HCl (pH 7.4), 15 mM KH2PO4, 0.6 M sorbitol, 10 mM MgSO4, 2.5 mg/mL fatty acid-free BSA.
# ATP production assays were carried out in 75 μl volumes in 96-well plates with a final PF T. brucei cell density of 6.7 x 10^7 cells/mL as previously reported. […] B-THP-Ts, antimycin A (AA) and oligomycin A (OA) were used at 200 μM, Dinitrophenol (DNP) at 1 mM, malonate at 5 mM, rotenone at 100 μM and salicylhydroxamic acid (SHAM) at 100 μM. 59.25 μL digitonin-permeabilised cells (prepared above) were added to 0.75 μl inhibitor dissolved in DMSO (or 0.75 μL DMSO without inhibitor for no inhibitor control) and incubated for 10 min to allow inhibitors to take effect. Substrate was added to 2.5 mM and incubated for 10 min. Reactions were started with the addition of ADP to 60 μM and incubated at RT for 30 min. […]
# [2] = system: mitochondrial membrane potential (Δψm) in live PF T. brucei; assay: MitoTracker monitoring of mitochondrial membrane potential; assay type: cell-based, Trypanosoma brucei; conditions: 2 h, AA and OA 2 μM, DNP 1 mM
# Description: To determine which mitochondrial complex of oxidative phosphorylation was targeted by B-THP-T compounds, their effects on the mitochondrial membrane potential (Δψm) were monitored in live PF T. brucei (Fig 6A). MitoTracker Red CMXRos, like tetramethylrhodamine and safranine, accumulates in active mitochondria and the degree of accumulation is dependent on the Δψm, however, accumulation of MitoTracker Green FM is independent of the Δψm and the ratio of red/green uptake can therefore be used to determine the Δψm normalised to the number and size of mitochondria present. […] Similarly, compounds 1 and 3 elevated the mitochondrial membrane potential (by 2-3-fold), confirming that they, like OA, reduce oxidative phosphorylation by the inhibition of the FoF1-ATP synthase.
# Fig 6 Effects of compounds on mitochondrial membrane potential. PF T. brucei were incubated with inhibitors and MitoTracker Red CMXRos, which is an indicator of the mitochondrial membrane potential (Δψm). (A) MitoTracker-loaded cells were imaged to qualitatively detect differences in the Δψm. […] (B) Fluorescence of MitoTracker-loaded cells were quantified using a microplate reader and normalised to MitoTracker green fluorescence.
# 2 x 10^6 PF T. brucei cells were incubated in 1 mL GF-SDM-79 growth media supplemented with/without inhibitors for 2 h. B-THP-Ts were used at 40 μM, AA and OA at 2 μM, DNP at 1 mM and SHAM at 100 μM. MitoTracker Red CMXRos and MitoTracker Green FM were added to 100 nM and 1 μM respectively and incubated for a further 10 min. Cells were washed in growth medium and the MitoTracker reagents chased into the mitochondrion for 10 min in fresh growth medium supplemented with inhibitors. Cells were washed again in growth medium to remove unincorporated MitoTracker reagents, pelleted, suspended in 100 μL 4% PFA in PBS, and fixed at RT in the dark for 10 min. Fixed cells were pelleted and suspended in 100 μl PBS. Cells were transferred to poly-lysine-coated slides and mounted with DAPI-containing SlowFade mounting medium (Invitrogen). Fluorescence images were collected with a DeltaVision microscope (as detailed above) to show MitoTracker localisation and comparative intensity.
# 1 mL of cells at 1 x 10^7 cells/mL were labelled as above. However, instead of fixing cells they were resuspended in 200 μL growth medium and transferred to 96-well plates. Fluorescences were recorded (excitation at 540/35 nm, emission at 590/10 nm for MitoTracker Red CMXRos, and excitation at 485/20 nm, emission at 528/20 nm for MitoTracker Green FM) using a BioTek FLX800 spectrofluorimeter and Gen5 Reader Control 2.0 software, in much the same way as others have recorded previously. Background fluorescence values were subtracted from each and MitoTracker Red fluorescences normalised against their MitoTracker Green FM counterparts. Membrane potentials were then calculated relative to the uninhibited controls.
Compound,EC50 (T. brucei BSF) [µM],EC50 (HeLa) [µM],EC50 (T. brucei PF) [µM],Effect on ATP production from Gly-3P [1],Effect on ATP production from succinate [1],Effect on mitochondrial membrane potential (Δψm) [2],Inhibition of ATP production from Gly-3P [1] [%]
"OCCCC[C@H]1CC2(C[C@@H](Cn3cc([C@@H]4CCC[C@H](CCCCOCc5ccccc5)O4)nn3)O1)N=N2 [Compound 2, 4-((5S,7S)-7-((4-((2S,6S)-6-(4-(benzyloxy)butyl)tetrahydro-2H-pyran-2-yl)-1H-1,2,3-triazol-1-yl)methyl)-6-oxa-1,2-diazaspiro[2.5]oct-1-en-5-yl)butan-1-ol]",11.8 ± 0.8,20.9 ± 3,8.9 ± 0.2,,,,
C=C(C)[C@H]1Cc2c(ccc3c2O[C@@H]2COc4cc(OC)c(OC)cc4[C@@H]2C3=O)O1 [rotenone],,,,no effect,no significant effect,,
"O=[N+]([O-])c1ccc(O)c([N+](=O)[O-])c1 [2,4-dinitrophenol]",,,,,almost abolished ATP production,decrease the mitochondrial membrane potential,67 ± 13
oligomycin A,,,,,almost abolished ATP production,elevates the Δψm,65 ± 21
O=C(NO)c1ccccc1O [salicylhydroxamic acid],,,,no effect,no significant effect,,

# Source: paper PMC5608556, “Photo-affinity labelling and biochemical analyses identify the target of trypanocidal simplified natural product analogues” (PLoS Neglected Tropical Diseases, 2017)
